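Assay format: 96-well plates, 48-hour exposure. GI50 = concentration required for 50% inhibition of growth. TGI is the concentration that stops growth completely.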
Columns and labels:
Assay in all cases: DTP human tumour cell line panel, 48 h
[1] = system: A549 NSCLC
[2] = system: EKVX NSCLC
[3] = system: HT29 colon
[4] = system: MALME-3M melanoma
[5] = system: OVCAR-8 ovarian
[6] = system: RPMI-8226 leukemia
[7] = system: SK-OV-3 ovarian
[8] = system: SNB-19 CNS
[9] = system: HCC-2998 colon
[10] = system: RXF 393 renal

Compound: Cc1c(C(=O)/C=C/c2ccccc2[N+](=O)[O-])[n+](=O)c2ccccc2n1[O-]
- TGI [1]: 34.3 µM
- TGI [2]: 27.6 µM
- TGI [3]: 23.2 µM
- TGI [4]: 27.8 µM
- TGI [5]: 14.3 µM
- TGI [6]: 14.7 µM
- TGI [7]: 31.8 µM
- TGI [8]: 33.4 µM

Compound: COc1ccc(Nc2nccc(N3CCN(c4c5ccc(Cl)cc5nc5ccc(OC)cc45)CC3)n2)cc1
- GI50 [1]: 7.51 µM
- TGI [1]: > 100 µM
- GI50 [9]: 23.5 µM
- TGI [9]: > 100 µM
- GI50 [3]: 6.61 µM
- TGI [3]: > 100 µM
- GI50 [4]: 92 µM
- TGI [4]: > 100 µM
- GI50 [5]: 6.53 µM
- TGI [5]: > 100 µM
- GI50 [6]: 3.73 µM
- TGI [6]: 28.1 µM
- GI50 [10]: 1.78 µM
- TGI [10]: 6.8 µM
- GI50 [7]: 53.1 µM
- TGI [7]: > 100 µM
- GI50 [8]: 18.5 µM
- TGI [8]: > 100 µM

Compound: CSc1ccc(N(C)c2nc(C)nc3c2CCC3)cc1
- GI50 [1]: < 0.01 µM
- TGI [1]: > 100 µM
- GI50 [2]: < 0.01 µM
- TGI [2]: 82 µM
- GI50 [9]: < 0.01 µM
- TGI [9]: 10.8 µM
- GI50 [3]: < 0.01 µM
- TGI [3]: 11.1 µM
- GI50 [5]: < 0.01 µM
- TGI [5]: > 100 µM
- GI50 [6]: < 0.01 µM
- TGI [6]: 25 µM
- GI50 [10]: < 0.01 µM
- TGI [10]: > 100 µM
- GI50 [7]: < 0.01 µM
- TGI [7]: 16.1 µM
- GI50 [8]: < 0.01 µM
- TGI [8]: > 100 µM

Compound: O=S1CSSC1
- TGI [1]: > 100 µM
- TGI [2]: 77.8 µM
- TGI [9]: 45.8 µM
- TGI [3]: 31.4 µM
- TGI [4]: > 100 µM
- TGI [5]: 52 µM
- TGI [10]: 35.2 µM
- TGI [7]: 53.3 µM
- TGI [8]: > 100 µM

Compound: CC1(C)CC(=O)C(CC2C(=O)c3ccccc3C2=O)C(=O)C1
- TGI [1]: > 100 µM
- TGI [2]: > 100 µM
- TGI [9]: > 100 µM
- TGI [3]: > 100 µM
- TGI [4]: > 100 µM
- TGI [5]: > 100 µM
- TGI [10]: > 100 µM
- TGI [7]: > 100 µM
- TGI [8]: > 100 µM

Compound: Cc1cc(C)n(C2=NS(=O)(=O)c3ccccc3N2C)n1
- TGI [1]: > 100 µM
- TGI [2]: > 100 µM
- TGI [9]: > 100 µM
- TGI [3]: > 100 µM
- TGI [5]: > 100 µM
- TGI [10]: > 100 µM
- TGI [7]: > 100 µM
- TGI [8]: > 100 µM

Compound: CN1c2ccccc2SC2C(c3ccccc3)=NOC21 (stereo not given)
- TGI [1]: > 100 µM
- TGI [2]: > 100 µM
- TGI [9]: > 100 µM
- TGI [3]: > 100 µM
- TGI [4]: 86.5 µM
- TGI [5]: > 100 µM
- TGI [10]: > 100 µM
- TGI [7]: > 100 µM
- TGI [8]: > 100 µM

Compound: Cc1ccc2oc(=O)c(-c3ccccc3)nc2c1
- TGI [1]: > 100 µM
- TGI [2]: > 100 µM
- TGI [9]: 41.9 µM
- TGI [3]: > 100 µM
- TGI [4]: 66.1 µM
- TGI [5]: > 100 µM
- TGI [6]: > 100 µM
- TGI [8]: > 100 µM

Compound: Cc1ccccc1/C=C/C(=O)c1ccccc1
- TGI [1]: 65.1 µM
- TGI [2]: 33.7 µM
- TGI [9]: 34.5 µM
- TGI [3]: 47.7 µM
- TGI [4]: 35 µM
- TGI [5]: 63.9 µM
- TGI [6]: 71.4 µM
- TGI [7]: 67.3 µM
- TGI [8]: 30.3 µM

Compound: CCCCCCC(C)CCCCCCCCCCC(=O)O (stereo not given)
- TGI [1]: > 100 µM
- TGI [2]: > 100 µM
- TGI [3]: > 100 µM
- TGI [4]: > 100 µM
- TGI [5]: > 100 µM
- TGI [6]: > 100 µM
- TGI [10]: > 100 µM
- TGI [7]: > 100 µM
- TGI [8]: > 100 µM

Compound: Cc1ccc(C)c(N2C(=O)C(=O)C(c3nc4ccccc4s3)C(=Nc3cccc4c(=O)[nH][nH]c(=O)c34)C2=O)c1 (stereo not given)
- TGI [1]: > 100 µM
- TGI [2]: > 100 µM
- TGI [9]: > 100 µM
- TGI [3]: > 100 µM
- TGI [4]: > 100 µM
- TGI [5]: > 100 µM
- TGI [6]: > 100 µM
- TGI [7]: > 100 µM
- TGI [8]: > 100 µM

Compound: O=C1c2ccccc2-c2c1c1ccccc1c(=O)n2CCNCCn1c2c(c3ccccc3c1=O)C(=O)c1ccccc1-2
- GI50 [1]: > 25 µM
- TGI [1]: > 25 µM
- GI50 [2]: > 25 µM
- TGI [2]: > 25 µM
- GI50 [4]: > 25 µM
- TGI [4]: > 25 µM
- GI50 [5]: > 25 µM
- TGI [5]: > 25 µM
- GI50 [10]: > 25 µM
- TGI [10]: > 25 µM
- GI50 [8]: 0.333 µM
- TGI [8]: > 25 µM

Compound: COc1ccc(-c2cnoc2-c2cc(OC)c3c(c2)OCCO3)cc1
- GI50 [1]: 0.048 µM
- TGI [1]: > 100 µM
- GI50 [9]: 0.083 µM
- TGI [9]: 22 µM
- GI50 [3]: 0.0331 µM
- TGI [3]: 20.8 µM
- GI50 [4]: 39.8 µM
- TGI [4]: > 100 µM
- GI50 [5]: 0.0524 µM
- TGI [5]: > 59.1 µM
- GI50 [6]: 0.0477 µM
- TGI [6]: 33 µM
- GI50 [7]: 0.0312 µM
- TGI [7]: 2.8 µM
- GI50 [8]: 0.0525 µM
- TGI [8]: > 100 µM

Compound: C[C@]12C/C(=C/O)C(=O)C(O)=C1CC[C@@H]1C2CC[C@@]2(C)C1CC[C@@H]2O (stereo not given in full)
- TGI [1]: > 100 µM
- TGI [2]: 72.8 µM
- TGI [3]: 65.1 µM
- TGI [4]: 46.2 µM
- TGI [5]: 75.6 µM
- TGI [6]: 64.8 µM
- TGI [10]: 36.3 µM
- TGI [7]: 65.5 µM
- TGI [8]: 36.1 µM

Compound: c1ccc(-c2nc(N3CCCNCC3)c3nc(-c4ccccc4)oc3n2)cc1
- GI50 [1]: 1.8 µM
- TGI [1]: 3.71 µM
- GI50 [2]: 1.65 µM
- TGI [2]: 3.17 µM
- GI50 [9]: 1.53 µM
- TGI [9]: 3.02 µM
- GI50 [3]: 1.76 µM
- TGI [3]: 3.72 µM
- GI50 [4]: 1.77 µM
- TGI [4]: 3.33 µM
- GI50 [5]: 2.13 µM
- TGI [5]: 4.93 µM
- GI50 [10]: 1.66 µM
- TGI [10]: 3.29 µM
- GI50 [7]: 1.74 µM
- TGI [7]: 3.19 µM
- GI50 [8]: 1.71 µM
- TGI [8]: 3.34 µM

Compound: [2H]c1nc(=Nc2cc(NC(=O)C=C)c(N(C)CCN(C)C)cc2OC)[nH]c(-c2cn(C([2H])([2H])[2H])c3ccccc23)c1[2H]
- GI50 [1]: 1.14 µM
- TGI [1]: 7.64 µM
- GI50 [2]: 0.853 µM
- TGI [2]: 11.5 µM
- GI50 [9]: 1.44 µM
- TGI [9]: 2.8 µM
- GI50 [3]: 1.69 µM
- TGI [3]: 3.26 µM
- GI50 [4]: 1.94 µM
- TGI [4]: 3.66 µM
- GI50 [5]: 4 µM
- TGI [5]: 24.5 µM
- GI50 [10]: 1.4 µM
- TGI [10]: 3.2 µM
- GI50 [8]: 1.4 µM
- TGI [8]: 3.05 µM

Compound: Cc1c2ccncc2c(C)c2c1[nH]c1ccc(O)c(OCC(F)(F)F)c12
- TGI [1]: 16.5 µM
- TGI [2]: 20.5 µM
- TGI [9]: 19.3 µM
- TGI [3]: > 7.5 µM
- TGI [4]: 22.3 µM
- TGI [5]: 26 µM
- TGI [6]: 5.95 µM
- TGI [7]: 19.9 µM
- TGI [8]: 9.17 µM

Compound: N.N.N.N.N.O=S(=O)([O-])S(=O)(=O)[O-].[Co+3]
- GI50 [1]: > 100 µM
- TGI [1]: > 100 µM
- GI50 [2]: > 100 µM
- TGI [2]: > 100 µM
- GI50 [3]: > 100 µM
- TGI [3]: > 100 µM
- GI50 [4]: > 100 µM
- TGI [4]: > 100 µM
- GI50 [5]: > 100 µM
- TGI [5]: > 100 µM
- GI50 [6]: > 100 µM
- TGI [6]: > 100 µM
- GI50 [7]: > 100 µM
- TGI [7]: > 100 µM
- GI50 [8]: > 100 µM
- TGI [8]: > 100 µM
